# Laboratory results as given in patent US8575116B1, “Polyacetylenic compounds for protecting against pancreatic islet atrophy” (Academia Sinica, priority 2010, dated 2013).
# Entries after “also recorded” stand apart in the source; their conditions may differ.
# Experiments:
# db/db mice [1] = assay: Long-term treatment of diabetic db/db mice: blood glucose and blood insulin; format: in vivo, mouse
# Method: (§1) FIGS. 1A-F show the anti-diabetic effects of cytopiloyne in db/db mice during long-term treatment. (A) Chemical structure of cytopiloyne (2-β-D-glucopyranosyloxy-1-hydroxytrideca-5,7,9,11-tetrayne). (B) Four groups of 6-to-8-week-old diabetic db/db mice were tube-fed with vehicle, cytopiloyne (CP, 0.5 and 2.5 mgkg^−1 day^−1) or glimepiride (GLM, 2.5 mgkg^−1 day^−1) from 0 to 42 days post-treatment. Blood glucose (BG) levels in these mice were measured. (C) Blood insulin levels from the mice of FIG. 1B. (D) IPGTT was performed in the db/db mice of FIG. 1B on day 0, 28 and 42, and blood glucose levels were monitored for 3.5 h. […] Results from 3 independent experiments are expressed as mean±SEM, and P<0.05 was considered to be statistically significant (*). […]
# After 0.5 h, the levels of postprandial blood sugar and insulin from the mice were monitored for additional 4 h. For continued administration, diabetic db/db males were grouped and tube-fed with vehicle, cytopiloyne (0.5 or 2.5 mgkg^−1 day^−1) or glimepiride (2.5 mg kg^−1 day^−1) for the indicated time, while levels of blood sugar, insulin, and glycosylated HbA1c, and glucose tolerance in these mice were determined. […] Unless indicated otherwise, the mice were fasted for 16 h, then Postprandial blood glucose and insulin in these mice were measured. […]
# db/db mice [2] = assay: Intraperitoneal glucose tolerance test (IPGTT) in db/db mice; format: in vivo, mouse; conditions: 2.5 mgkg^−1 day^−1 for 6 weeks, day 42, db/db mice
# Method: as §1, with “h. (E) The percentage of glycosylated HbAlc of whole blood from the mice of FIG. 1B on day 0 and 42. (F) Pancreata of 8- and 16-week-old db/db males, which had received the same treatment as FIG. 1B for 2 (images a-h) and 10 (images i-p) weeks, were stained with hematoxylin and eosin (H&E, images a, c, e, g, i, k, m and o) or hematoxylin and anti-insulin (H&I, images b, d, f, h, j, l, n and p).” for “h.”
# Male db/db mice were administered either vehicle, cytopiloyne at 0.5 and 2.5 mgkg^−1 day^−1 or glimepiride at 2.5 mgkg^−1 day^−1 for the indicated time. […] The levels of blood sugar were monitored from −0.5 to 3 h after glucose administration.
# STZ-treated C57BL mice = assay: Blood glucose in STZ-treated (β-cell-depleted) C57BL mice; format: in vivo, mouse; conditions: cytopiloyne oral 0.1, 0.5 and 2.5 mgkg^−1; insulin i.p. 2.5 IUkg^−1
# Method: FIGS. 3A-C show cytopiloyne-mediated insulin release depends on pancreatic islet cells. (A) Rat pancreatic islet cells were incubated with glucose-free KRB buffer containing vehicle or cytopiloyne at 1.5, 3, 7, 14, 28 and 42 μM (FIG. 3A-i). Similarly, rat pancreatic islet cells were incubated with KRB buffer containing vehicle, glimepiride (GLM, 10 μM) or cytopiloyne at 1.5, 3, 7, 14, 28 and 42 μM in the presence of 3.3 mM glucose (LG, FIG. 3A-ii) or 16.7 mM glucose (HG, FIG. 3A-iii). The insulin levels were determined using an insulin ELISA kit. The data presented as mean±SEM of 3 independent experiments. (B) Fed C57BL mice, which had already received an injection of STZ, were administered with an oral dose of vehicle, cytopiloyne (CP, 0.1, 0.5 and 2.5 mgkg^−1), and an intraperitoneal injection of insulin (Ins, 2.5 IUkg^−1). Blood sugar levels in the STZ-treated mice were determined using a glucometer. […] Blood sugar levels in the STZ-treated mice were determined using a glucometer. All the results from 3 independent experiments are expressed as mean±SEM, and P<0.05 was considered to be statistically significant (*). […]
# To deplete pancreatic β-cells in mice, 6-week-old C57BL females (NLAC, Taipei, Taiwan) were intraperitoneally injected with STZ at 200 mgkg^−1. […] Blood glucose levels were monitored for 4 h. […] Blood glucose levels in the mice were monitored from 0 to 4 h after insulin injection.
# HIT-T15 cells = assay: Insulin secretion of β-cell line with PMA, GF109203X and cytopiloyne (ELISA); format: cell-based, rat; conditions: FIG. 6A; glucose 16.7 mM
# 3T3-L1 cells = format: cell-based, mouse; conditions: differentiating 3T3-L1 cells; glimepiride 10 μM, rosiglitazone 1 μM, cytopiloyne 50 μM
smiles,measurement,setting,value
"CC#CC#CC#CC#CCCC(CO)O[C@@H]1O[C@H](CO)[C@@H](O)[C@H](O)[C@H]1O (stereo partly drawn) [cytopiloyne, 2-β-D-glucopyranosyloxy-1-hydroxytrideca-5,7,9,11-tetrayne]","blood insulin levels, long-term treatment","db/db mice [1]; 0.5 and 2.5 mgkg^−1 day^−1, db/db mice (FIG. 1C)",increased blood insulin levels to a greater extent than glimepiride
same,blood sugar-lowering / anti-diabetic effect compared with glimepiride 2.5 mgkg^−1,"db/db mice [1]; 2.5 mgkg^−1 day^−1, long-term, fed db/db mice (FIG. 1B)",slightly therapeutically better than glimepiride at 2.5 mgkg^−1; also recorded: modestly better anti-diabetic effects at the same dose
same,glucose tolerance (IPGTT),db/db mice [2],improved glucose tolerance in db/db mice to a greater extent than glimepiride
same,reduction of hyperglycemia / blood glucose in β-cell-depleted mice,STZ-treated C57BL mice,lost its ability in regulating both responses
same,insulin secretion in β-cell line,HIT-T15 cells,stimulated insulin secretion
same,"lipid accumulation (lipid droplets, Oil red O)",3T3-L1 cells,same basal level of lipid droplets as the control
